Here are results for 6 compounds from ChEMBL document CHEMBL1150255, “Spongian diterpenes with thyrotropin releasing hormone receptor 2 binding affinity from Spongia sp” (J Nat Prod, 2008).

pIC50: −log10 of the molar value.

The pIC50 is the negative decadic logarithm of the IC50, by convention in mol/L.

This test has as its target T1, Thyrotropin-releasing hormone receptor 2 (Rattus norvegicus, UniProt A6IZR3).
T1 sequence (A6IZR3 whole entry): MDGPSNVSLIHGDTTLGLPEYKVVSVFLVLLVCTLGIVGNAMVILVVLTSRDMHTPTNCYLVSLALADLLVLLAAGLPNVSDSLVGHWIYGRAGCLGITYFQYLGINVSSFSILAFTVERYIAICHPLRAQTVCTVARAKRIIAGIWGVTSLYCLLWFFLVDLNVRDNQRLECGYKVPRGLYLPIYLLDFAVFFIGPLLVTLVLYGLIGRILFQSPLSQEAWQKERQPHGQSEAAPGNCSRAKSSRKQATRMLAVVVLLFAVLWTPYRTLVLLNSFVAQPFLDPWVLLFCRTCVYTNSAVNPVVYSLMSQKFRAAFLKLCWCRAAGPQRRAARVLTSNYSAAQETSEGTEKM
Briefly: Displacement of [3H]3-methylhistidyl-TRH from rat recombinant TRHR2 expressed in […] cells. In kind it is cell-based. Background: Loss of bound radioactivity is the signal in a displacement assay; it reports binding, not function.
For the compound `C[C@]1(CO)CCC[C@]2(CO)[C@H]3CCc4cocc4[C@]3(C)CC[C@@H]12`, the pIC50 was 3.22.
As for `CC(=O)OC[C@]12CCC[C@](C)(CO)[C@@H]1CC[C@@]1(C)c3cocc3CC[C@H]21`, the pIC50 is 4.64.
On to `NC(=O)[C@@H]1CCCN1C(=O)[C@H](Cc1cnc[nH]1)NC(=O)[C@@H]1CCC(=O)N1` [PROTIRELIN], for which the pIC50 is 7.64.
For `CC(=O)OC[C@@]1(C)CCC[C@]2(CO)[C@H]3CCc4cocc4[C@]3(C)CC[C@@H]12`, the pIC50 is 4.15.
The value for `CC1(C)CCC[C@]2(C)[C@H]3CCc4cocc4[C@]3(C)CC[C@@H]12` was 3.00; that for `CC(=O)OC[C@@]1(C)CCC[C@]2(COC(C)=O)[C@H]3CCc4cocc4[C@]3(C)CC[C@@H]12` was 3.40.
